According to patent US11351151B2, “Compound having anticancer activity and preparation method and application” (3D Medicines (Beijing) Co., Ltd., priority 2016, dated 2022):

Columns and labels:
Assay in all cases: Cell proliferation assay (Alamar Blue)
Type in all cases: cell-based
[1] = test system: Alexander cells; details: 144 h, liver cancer cell line, 6 days
In short: (§1)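 Growth inhibition is measured after six days of drug exposure using resazurin (AlamarBlue) fluorescence at 560/590 nm. Dose–response curves, typically four-parameter, yield IC50 values.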

[2] = test system: DU145; details: Homo sapiens, DU-145, 144 h; DU145 tumor cell line; 6 days
In short: as §1

[3] = test system: HT1080; details: Homo sapiens, HT-1080, 144 h; HT1080 tumor cell line; 6 days
In short: as §1

[4] = test system: HUH1; details: Homo sapiens, HuH-1, 144 h; HUH1 liver cancer cell line; 6 days
In short: as §1

[5] = test system: HUH7; details: Homo sapiens, Huh-7, 144 h; HUH7 liver cancer cell line; 6 days
In short: as §1

[6] = test system: HuTu80; details: Homo sapiens, 144 h; HuTu80 tumor cell line; 6 days
In short: as §1

[7] = test system: JHH1; details: 144 h; JHH1 liver cancer cell line; 6 days
In short: as §1

[8] = test system: JHH2; details: JHH-2, 144 h; JHH2 liver cancer cell line; 6 days
In short: as §1

[9] = test system: JHH5; details: 144 h; JHH5 liver cancer cell line; 6 days
In short: as §1

[10] = test system: LNCAP-clone-FGC; details: Homo sapiens, 144 h; LNCAP-clone-FGC tumor cell line; 6 days
In short: as §1

[11] = test system: MFM-223; details: Homo sapiens, 144 h; MFM-223 tumor cell line; 6 days
In short: as §1

[12] = test system: MG63; details: Homo sapiens, MG-63, 144 h; MG63 tumor cell line; 6 days
In short: as §1

[13] = test system: NCl-H1648; details: 144 h; NCl-H1648 tumor cell line; 6 days
In short: as §1

[14] = test system: NCl-H1703; details: for IC50: 144 h, NCl-H1703 (lung cancer cells), 6 days
In short: as §1

[15] = test system: NCl-H716; details: 144 h; NCl-H716 tumor cell line; 6 days
In short: as §1

[16] = test system: SNU354; details: Homo sapiens, SNU-354, 144 h; SNU354 liver cancer cell line; 6 days
In short: as §1

[17] = test system: SNU387; details: Homo sapiens, SNU-387, 144 h; SNU387 liver cancer cell line; 6 days
In short: as §1

[18] = test system: SNU449; details: Homo sapiens, SNU-449, 144 h; SNU449 liver cancer cell line; 6 days
In short: as §1

[19] = test system: SNU475; details: Homo sapiens, SNU-475, 144 h; SNU475 liver cancer cell line; 6 days
In short: as §1

[20] = test system: SNU761; details: 144 h; SNU761 liver cancer cell line; 6 days
In short: as §1

[21] = test system: SW620; details: Homo sapiens, SW-620, 144 h; SW620 tumor cell line; 6 days
In short: as §1

[22] = test system: T.T; details: Homo sapiens, TT, 144 h; T.T tumor cell line; 6 days
In short: as §1

[23] = test system: TE-6; details: Homo sapiens, 144 h; TE-6 tumor cell line; 6 days
In short: as §1

| IC50 [2] | IC50 [3] | IC50 [4] | IC50 [5] | IC50 [10] | IC50 [13] | IC50 [14] | IC50 [15] | IC50 [16] | IC50 [17] | IC50 [18] | IC50 [19] | IC50 [20] | SMILES | IC50 [1] | IC50 [6] | IC50 [7] | IC50 [8] | IC50 [9] | IC50 [11] | IC50 [12] | other results |
| --- | --- | --- | --- | --- | --- | --- | --- | --- | --- | --- | --- | --- | --- | --- | --- | --- | --- | --- | --- | --- | --- |
| 26.4 µM | 94.4 µM | 50.6 µM | 42.2 µM | 70.9 µM | > 100 µM | 0.89 µM | 82.2 µM | 63.3 µM | > 100 µM | > 100 µM | 76.1 µM | 77 µM | Cc1ccc(F)c(NC(=O)Nc2ccc(-c3cccc4c3c(N)nn4C(=O)CCCCCNC(=O)C[C@H](N)C(=O)O)cc2)c1 [Compound 11] | 79.5 µM | 23.1 µM | > 100 µM | 93.5 µM | 87.7 µM | 26.5 µM | 77 µM | IC50 [21]: 60.3 µM; IC50 [22]: > 100 µM; IC50 [23]: > 100 µM |
| 7.38 µM | 25.8 µM | 7.93 µM | 6.69 µM | 15.4 µM | 13.6 µM | 0.15 µM | 6.09 µM | 16.8 µM | 40.1 µM | 14.6 µM | 9.62 µM | 29.1 µM | Cc1ccc(F)c(NC(=O)Nc2ccc(-c3cccc4c3c(N)nn4C(=O)C[C@H](N)C(=O)N[C@@H](CCC(=O)N[C@@H](CCC(=O)N[C@@H](CCC(=O)N[C@@H](CCC(=O)N[C@@H](CCC(=O)N[C@@H](CCC(=O)N[C@@H](CCC(=O)N[C@@H](CCC(=O)N[C@@H](CCC(=O)O)C(=O)O)C(=O)O)C(=O)O)C(=O)O)C(=O)O)C(=O)O)C(=O)O)C(=O)O)C(=O)O)cc2)c1 [Compound 3] | 12.7 µM | 7.33 µM | 14.9 µM | 40.7 µM | 31 µM | 21.9 µM | 27.1 µM | IC50 [21]: 10.4 µM; IC50 [22]: 19.8 µM; IC50 [23]: 11.3 µM |
| 4.89 µM | 19.3 µM | 6.71 µM | 4.32 µM | 6.34 µM | 8.91 µM | 0.063 µM | 2.84 µM | 7.01 µM | 19.4 µM | 8.39 µM | 6.37 µM | 15.3 µM | Cc1ccc(F)c(NC(=O)Nc2ccc(-c3cccc4c3c(N)nn4C(=O)C[C@H](N)C(=O)N[C@@H](CCC(=O)N[C@@H](CCC(=O)N[C@@H](CCC(=O)N[C@@H](CCC(=O)O)C(=O)O)C(=O)O)C(=O)O)C(=O)O)cc2)c1 [Compound 2] | 5.21 µM | 5.62 µM | 11.3 µM | 36 µM | 21.3 µM | 10.3 µM | 15.8 µM | IC50 [21]: 4.67 µM; IC50 [22]: 8.29 µM; IC50 [23]: 7.03 µM |
| 1.34 µM | 8.82 µM | 3.47 µM | 2.89 µM | 5.13 µM | 6.06 µM | 0.021 µM | 1.93 µM | 4.57 µM | 10.5 µM | 4.91 µM | 3.88 µM | 9.04 µM | Cc1ccc(F)c(NC(=O)Nc2ccc(-c3cccc4c3c(N)nn4C(=O)C[C@H](N)C(=O)O)cc2)c1 [Compound 10] | 5.31 µM | 2.63 µM | 7.43 µM | 25.1 µM | 12.4 µM | 5.63 µM | 4.37 µM | IC50 [21]: 3.46 µM; IC50 [22]: 4.37 µM; IC50 [23]: 4.11 µM |

| SMILES | IC50 [2] | IC50 [3] | IC50 [4] | IC50 [5] | IC50 [10] | IC50 [13] | IC50 [14] | IC50 [15] | IC50 [16] | IC50 [17] | IC50 [18] | IC50 [19] | IC50 [20] | IC50 [1] | IC50 [6] | IC50 [7] | IC50 [8] | IC50 [9] | IC50 [11] | IC50 [12] | other results |
| --- | --- | --- | --- | --- | --- | --- | --- | --- | --- | --- | --- | --- | --- | --- | --- | --- | --- | --- | --- | --- | --- |
| Cc1ccc(F)c(NC(=O)Nc2ccc(-c3cccc4c3c(N)nn4C(=O)CCCCCNC(=O)C[C@H](N)C(=O)N[C@@H](CCC(=O)N[C@@H](CCC(=O)N[C@@H](CCC(=O)N[C@@H](CCC(=O)O)C(=O)O)C(=O)O)C(=O)O)C(=O)O)cc2)c1 [Compound 5] | 55.4 µM | > 100 µM | 82.3 µM | 77.9 µM | > 100 µM | > 100 µM | 3.43 µM | 66.7 µM | > 100 µM | > 100 µM | > 100 µM | > 100 µM | > 100 µM | > 100 µM | 48.4 µM | > 100 µM | > 100 µM | > 100 µM | 48.3 µM | > 100 µM | IC50 [21]: > 100 µM; IC50 [22]: > 100 µM; IC50 [23]: > 100 µM |
| Cc1ccc(F)c(NC(=O)Nc2ccc(-c3cccc4c3c(N)nn4C(=O)CCCCCCCCCCCNC(=O)C[C@H](N)C(=O)N[C@@H](CCC(=O)N[C@@H](CCC(=O)N[C@@H](CCC(=O)N[C@@H](CCC(=O)O)C(=O)O)C(=O)O)C(=O)O)C(=O)O)cc2)c1 [Compound 8] | 20.7 µM | 45.3 µM | 31.9 µM | 23.6 µM | > 100 µM | > 100 µM | 0.08 µM | 26.9 µM | 40.6 µM | 90.2 µM | 60.3 µM | 57.5 µM | 80.1 µM | > 100 µM | 43.8 µM | 35.4 µM | > 100 µM | 48.6 µM | 24 µM | 37.2 µM | difference of IC50 value versus Linifanib ([14]; NCI-H1703 (lung cancer cells)): 4 times; IC50 [21]: 44.5 µM; IC50 [22]: > 100 µM; IC50 [23]: > 100 µM |
